Measurements published in US11951197B2, “Use of volatile compounds to modulate the perception of floral muguet” (FIRMENICH SA, priority 2018, dated 2024).

Legend:
[1] = biological target: T1, OR10J5 olfactory receptor (Homo sapiens, UniProt Q8NHC4); assay: Dose-response confirmation of enhancer candidates, alone and with EC20 LYRAL®; format: cell-based; conditions: response to LYRAL® raised beyond EC20 without measurable intrinsic activity
T1 construct: Flag; Rho (rhodopsin-derived tag); expressed in transfected cells
T1 sequence (Q8NHC4 1-309): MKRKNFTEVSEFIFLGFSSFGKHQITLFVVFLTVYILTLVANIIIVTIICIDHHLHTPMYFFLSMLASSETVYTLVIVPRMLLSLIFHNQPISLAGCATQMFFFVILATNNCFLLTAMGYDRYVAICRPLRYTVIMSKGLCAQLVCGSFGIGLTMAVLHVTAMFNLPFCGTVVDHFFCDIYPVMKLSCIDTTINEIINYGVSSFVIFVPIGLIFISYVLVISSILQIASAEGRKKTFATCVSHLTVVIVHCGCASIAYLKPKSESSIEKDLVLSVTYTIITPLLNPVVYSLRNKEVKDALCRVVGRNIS
Description: (§1) A dose response curve showing the activation of OR10J5 in response to the floral muguet compound 3-(4-hydroxy-4-methylpentyl)cyclohex-3-ene-1-carbaldehyde, 4-(4-hydroxy-4-methylpentyl)cyclohex-3-ene-1-carbaldehyde or a mixture thereof (sold under the tradename LYRAL®, hereinafter referred to as “LYRAL®”) is shown in FIG. 1. Using a cell-based assay, OR10J5 activity was tested in a HEK293T cell line wherein the endogenous chaperone RTP1 gene has been activated and the odorant receptor chaperone was expressed according to the methods disclosed in International Patent Application Publication No. WO2016/201153 A1. The Flag-Rho-tagged receptor was co-transfected with the olfactory canonical G-protein Golf and was exposed to a binary mixture of a single concentration of LYRAL® and a test compound.
A library of volatile compounds was used to create binary mixtures of each compound with LYRAL® at approximately EC20, a concentration eliciting only approximately 20% of full activity level of OR10J5 by itself. An activation cell-based assay was used for the initial enhancer candidate identification as disclosed in WO2019122236. Single binary mixture-induced receptor activity was detected by measuring the cAMP increase in the cytosol using an HTRF (Homogenous Time-Resolved Fluorescence unit) based kit (CisBio, cAMP dynamic 2 kit, 62AM4PEJ).
The 37 candidates remaining in Table 2 were identified and were tested in two parallel dose-response experiments to confirm the true enhancement properties of the potential candidates. First, a dose-response of each individual candidate was performed to determine if it was an agonist by itself. Second, the same candidate dose-response curve in the presence of EC20 LYRAL® concentration (generating 20% activity on OR10J5) was assessed for activity level increase.

OR10J5 [2] = biological target: T2, OR10J5 (Homo sapiens, UniProt Q8NHC4); assay: LYRAL® dose-response with a steady concentration of test compound (EC50-fold shift); format: cell-based; conditions: LYRAL® + steady concentration of compound vs LYRAL® alone
T2 construct: Flag; Rho (rhodopsin-derived tag); expressed in transfected cells
T2 sequence (Q8NHC4 1-309): T1 sequence (Q8NHC4 1-309)
Description: as §1
(§2) LYRAL® enhancement specificity was tested on compounds that were structurally similar to enhancers identified. Dose response curves to LYRAL® were obtained in the presence of a steady concentration of a test compound and compared to a dose-response curve of LYRAL® alone. The resulting enhancement was quantified by means of EC50-fold shift (potency increase) and the efficacy span ratio (efficacy increase).
The EC50-fold shift was obtained by dividing the EC50 of LYRAL®+compound by the reference EC50 of LYRAL® alone. […]

OR10J5 [3] = biological target: T2, OR10J5; assay: (+−)-2,5-dimethyl-2-indanmethanol dose-response with a steady concentration of test compound; format: cell-based; conditions: OR10J5
Description: OR10J5 activity enhancement was tested with an additional agonist and with one of the test compounds and conditions described in the Examples above. Dose response curves to (+−)-2,5-dimethyl-2-indanmethanol was obtained in the presence of a steady concentration of the test compound and compared to a dose-response curve of the agonist alone. The resulting enhancement was quantified by means of EC50-fold shift (potency increase) and the efficacy span ratio (efficacy increase) as described above.

OR10J5 [4] = biological target: T2, OR10J5; assay: LYRAL® dose-response with serial enhancer concentrations, allosteric EC50 shift model; format: cell-based
Description: Functional dose-response experiments were performed to reveal the allosteric nature of the interaction between 3-(1,3-benzodioxol-5-yl)-2-methylpropanal, 3-(4-methylcyclohex-3-en-1-yl)butanal, 2,6-dimethylhept-5-enal and heptanal and OR10J5. The level of enhancement of OR10J5's activation was evaluated at distinct concentrations of each enhancer. Using the same cell-based assay described earlier, dose response curves of OR10J5 to LYRAL® in the presence of serial concentrations of the enhancers spanning from 0 to 600 μM were performed, see FIG. 5. The curves were obtained by applying the simplified Allosteric EC50 shift effect equation (available in Prism7) derived from the ternary complex interaction model. The enhancement levels recorded were not linearly dependent on the concentration of the enhancer, and the following key parameters values for α (the cooperativity factor) and KB (the equilibrium dissociation constant of the enhancer) were obtained from the model for each enhancer: 3-(1,3-benzodioxol-5-yl)-2-methylpropanal, α=6.3 and KB=10 μM; 3-(4-methylcyclohex-3-en-1-yl)butanal, α=7.5 and KB=15 μM; 2,6-dimethylhept-5-enal, α=4.1 and KB=16 μM; and heptanal; α=3.2 and KB=51 μM. α>1 is indicative of positive allosteric modulation.

Olfr16 = biological target: T3, Olfr16 (Mus musculus, UniProt Q62007); assay: LYRAL® dose-response with a steady concentration of test compound (EC50-fold shift); format: cell-based; conditions: Olfr16 (mouse ortholog); LYRAL® + steady concentration of compound vs LYRAL® alone
T3 construct: expressed in transfected cells
T3 sequence (Q62007 1-309): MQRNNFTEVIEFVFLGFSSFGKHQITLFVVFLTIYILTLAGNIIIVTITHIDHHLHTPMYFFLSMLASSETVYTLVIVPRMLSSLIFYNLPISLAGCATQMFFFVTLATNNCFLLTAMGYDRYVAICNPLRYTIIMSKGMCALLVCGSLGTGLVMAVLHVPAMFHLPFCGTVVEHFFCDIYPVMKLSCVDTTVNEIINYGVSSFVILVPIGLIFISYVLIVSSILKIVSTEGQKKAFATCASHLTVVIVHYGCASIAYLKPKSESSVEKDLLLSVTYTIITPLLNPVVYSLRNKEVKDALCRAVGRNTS
Description: as §2
The EC50-fold shift was obtained by dividing the EC50 of LYRAL®+compound by the reference EC50 of LYRAL® alone. The span ratio was obtained by dividing the span of LYRAL®+compound by the reference span of LYRAL® alone.

[5] = Odor detection threshold (ODT) forced-choice triangle tests for LYRAL® with background odor; format: in vivo, human; conditions: 28 panelists; enhancer at 0.1% vs neutral compound at 7%; main effect of Material p=0.03, interaction p=0.052
Description: Sensitivity of human individuals to LYRAL® was evaluated by performing an odor detection threshold (ODT) test. The ODT test consisted of identifying the concentration for which 50%, preferably 66%, of the panelists are able to determine which of three containers contains the target compound LYRAL® in a series of forced-choice triangle tests. Two tests were performed to calculate the ODT in mixtures containing LYRAL® plus a perceivable background odor of chemically similar molecules a) the enhancer, 3-(4-methylcyclohex-3-en-1-yl)butanal and b) the non-enhancing volatile compound, 3-[(1R)-4-methyl-3-cyclohexen-1-yl]-1-butanol. These two molecules are chemically similar. The perceived intensity of the two background odors was monitored to be isointense to control that the responses recorded answer were intensity independent.
28 panelists were given a series of triangle tests with increasing concentrations of LYRAL® in the presence of 3-(4-methylcyclohex-3-en-1-yl)butanal at a concentration of 0.1%. Within each triangle test, the three samples contained 3-(4-methylcyclohex-3-en-1-yl)butanal at 0.1% and one sample also contained LYRAL®. 28 panelists were given a series of triangle tests with increasing concentration of Lyral® in the presence of 3-[(1R)-4-methyl-3-cyclohexen-1-yl]-1-butanol at a concentration of 7%. […]

| SMILES | enhancement of OR10J5 LYRAL® activation (true enhancer) [1] | EC50 fold shift of LYRAL® (potency increase) (OR10J5 [2]) | EC50 fold shift of (+−)-2,5-dimethyl-2-indanmethanol (OR10J5 [3]; agonist + steady concentration of compound vs agonist alone) | efficacy increase (span ratio) of (+−)-2,5-dimethyl-2-indanmethanol (OR10J5 [3]; within the dynamic range of the dose response) | Kb (OR10J5 [4]) | α (cooperativity factor) (OR10J5 [4]; enhancer 0 to 600 μM, allosteric EC50 shift equation (Prism7), α>1 indicates positive allosteric modulation) | EC50 fold shift of LYRAL® (potency increase) (Olfr16) | proportion of correct LYRAL® detection responses with increasing LYRAL® concentration [5] |
| --- | --- | --- | --- | --- | --- | --- | --- | --- |
| CC(C=O)Cc1ccc2c(c1)OCO2 (stereo not drawn) [3-(1,3-benzodioxol-5-yl)-2-methylpropanal] | potent enhancement | 9.2 fold | 8.6 fold | 1.7 fold | 10 µM | 6.3 | 5 fold |  |
| CC1=CC[C@H](C(C)CC=O)CC1 (stereo partly drawn) [3-(4-methylcyclohex-3-en-1-yl)butanal] | potent enhancement |  |  |  |  |  |  | proportion of correct responses increased at a higher rate |
